Results from patent publication US20210395210A1, “INHIBITION OF BACTERIAL CHAPERONIN SYSTEMS” (THE TRUSTEES OF INDIANA UNIVERSITY, priority 2018, published 2021).
Where two headings read alike, the source gives them in different places.

Assays:
E. coli GroEL/ES = molecular target: T1, E. coli GroEL/ES (Escherichia coli, UniProt P0A6F5); experiment: GroEL/ES-mediated dMDH refolding assay; type: biochemical; conditions: for log(IC50) GroEL/ES-dMDH Refolding: log of IC50 (μM scale), with standard deviation; for selectivity for E. coli GroEL/ES over human HSP60/10 (in words): GroEL/ES-dMDH vs HSP60/10-dMDH IC50; for inhibition in the GroEL/ES-mediated refolding assays (in words): dMDH and dRho refolding assays
T1 construct: made in house; host or cells: GroEL in E. coli DH5α; GroES in E. coli BL21 (DE3)
T1 sequence (P0A6F5 2-548): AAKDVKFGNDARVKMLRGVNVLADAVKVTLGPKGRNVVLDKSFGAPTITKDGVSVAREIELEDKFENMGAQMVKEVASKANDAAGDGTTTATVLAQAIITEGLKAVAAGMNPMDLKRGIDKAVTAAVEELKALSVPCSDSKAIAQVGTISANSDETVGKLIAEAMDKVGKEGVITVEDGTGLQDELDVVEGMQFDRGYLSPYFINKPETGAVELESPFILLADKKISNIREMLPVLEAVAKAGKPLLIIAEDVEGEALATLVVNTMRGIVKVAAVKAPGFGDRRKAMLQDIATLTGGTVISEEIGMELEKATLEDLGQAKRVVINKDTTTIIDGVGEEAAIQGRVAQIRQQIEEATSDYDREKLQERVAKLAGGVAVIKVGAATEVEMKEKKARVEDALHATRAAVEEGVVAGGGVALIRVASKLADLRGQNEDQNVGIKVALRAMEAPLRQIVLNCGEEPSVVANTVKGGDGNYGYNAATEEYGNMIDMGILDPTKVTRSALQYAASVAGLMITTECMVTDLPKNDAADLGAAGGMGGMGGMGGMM
Description: Reagent preparation: For these assays, four primary reagent stocks were prepared: 1) GroEUES-dMDH or HSP60/10-dMDH binary complex stock; 2) ATP initiation stock; 3) EDTA quench stock; 4) MDH enzymatic assay stock. Denatured MDH (dMDH) was prepared by 2-fold dilution of MDH (5 mg/ml, soluble pig heart MDH from Roche, product #10127248001) with denaturant buffer (7 M guanidine-HCl, 200 mM Tris, pH 7.4, and 50 mM DTT). MDH was completely denatured by incubating at room temperature for 45 min. The binary complex solutions were prepared by slowly adding the dMDH stock to a stirring stock with GroEL (or HSP60) in folding buffer (50 mM Tris-HCl, pH 7.4, 50 mM KCl, 10 mM MgCl2, and 1 mM DTT), followed by addition of GroES (or HSP10). The binary complex stocks were prepared immediately prior to dispensing into the assay plates and had final protein concentrations of 83.3 nM GroEL (Mr 800 kDa) or HSP60 (Mr 400 kDa), 100 nM GroES or HSP10 (Mr 70 kDa), and 20 nM dMDH in folding buffer. For the ATP initiation stock, ATP solid was diluted into folding buffer to a final concentration of 2.5 mM. Quench solution contained 600 mM EDTA (pH 8.0). The MDH enzymatic assay stock consisted of 20 mM sodium mesoxalate and 2.4 mM NADH in reaction buffer (50 mM Tris-HCl, pH 7.4, 50 mM KCl, and 1 mM DTT).
Assay Protocol: First, 30 μL aliquots of the GroEL/ES-dMDH or HSP60/10-dMDH binary complex stocks were dispensed into clear, 384-well polystyrene plates. […] The chaperonin-mediated refolding cycles were initiated by addition of 20 μL of ATP stock (reagent concentrations during refolding cycle: 50 nM GroEL or HSP60, 60 nM GroES or HSP10, 12 nM dMDH, 1 mM ATP, and compounds of 100 μM to 46 nM, 3-fold dilution series). The refolding reactions were incubated at 37° C. […] Next, the assay was quenched by addition of 10 μL of the EDTA to final concentration of 100 mM. […] A340 nm measurements were recorded at 0.5 minutes (start point) and at successive time points until the amount of NADH consumed reached ˜90% (end point, generally between 20-35 minutes). The differences between the start and end point A340 values were used to calculate the % inhibition of the GroEL/ES or HSP60/10 machinery by the compounds. […] Results presented represent the averages of IC50 values obtained from at least quadriplicate (duplicate of duplicate) replicates.
After generating the compound library, we next employed a series of well-established biochemical assays to evaluate compound inhibitory effects against the GroEUES chaperonin system (See FIG. 6 and FIG. 7). We used E. coli GroEUES as the surrogate chaperonin system for refolding of the reporter enzymes malate dehydrogenase (MDH) and rhodanese (Rho). Briefly, binary complexes are formed between GroEL and denatured MDH or Rho, which are then refolded to their native states upon addition of ATP and the GroES co-chaperonin. Enzymatic activities of refolded native MDH or Rho act as coupled reporters of GroEUES refolding functions since in the presence of chaperonin inhibitors, no functional reporter enzymes are generated.

native Rho (rhodanese) = molecular target: T2, native Rho (rhodanese) (Bos taurus, UniProt P00586); experiment: Counter-screen for inhibition of native rhodanese enzymatic activity; type: biochemical; conditions: for log(IC50) Native Rho Reporter: log of IC50 (μM scale), with standard deviation; for IC50: read-out: Biochemical Assay IC50 Native Rho Reporter; for inhibition of native Rho enzymatic activity (in words): false-positive counter-screen
T2 construct: purchased Roche (so in the source) R1756
T2 sequence (P00586 1-297): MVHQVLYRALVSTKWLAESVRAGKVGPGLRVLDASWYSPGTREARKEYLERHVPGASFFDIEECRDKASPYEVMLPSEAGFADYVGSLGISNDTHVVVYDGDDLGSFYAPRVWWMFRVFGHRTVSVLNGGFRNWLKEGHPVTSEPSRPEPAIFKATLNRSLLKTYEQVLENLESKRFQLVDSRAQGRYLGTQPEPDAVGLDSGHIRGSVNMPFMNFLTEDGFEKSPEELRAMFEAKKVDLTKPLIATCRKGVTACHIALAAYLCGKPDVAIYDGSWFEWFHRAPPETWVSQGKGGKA
Description: Reagent Preparations & Assay Protocol: Reagents were identical to those used in the GroEUES-dRho refolding assay described above; however, the assay protocol differed in the sequence of compound addition to the wells. Compounds were pin-transferred after the 60 minute incubation for the refolding cycle, but prior to the addition of the thiocyanate enzymatic assay stock. Thus, the refolding reactions were allowed to proceed for 60 min at 37° C. in the absence of test compounds, but the enzymatic activity of the refolded rhodanese reporter enzyme was monitored in the presence of test compounds (inhibitor concentration range during the enzymatic reporter reaction is 100 µM to 46 nM-3-fold dilutions). IC50 values for the rhodenase reporter enzyme were determined as described above. Results presented represent the averages of IC50 values obtained from at least quadriplicate (duplicate of duplicate) replicates.

in vitro [1] = conditions: human
Description: (§1) HEK 293 cells were maintained in MEM medium (Corning Cellgro, 10-009 CV) supplemented with 10% FBS (Sigma, F2242). […] Cells at 80% confluence were harvested and diluted in growth medium, then 45 μL of the THLE-3 cells (1,500 cells/well) or HEK 293 cells (1,500 cells/well) were dispensed per well, and plates were sealed with “Breathe Easy” oxygen permeable membranes (Diversified Biotech) and incubated at 37° C., 5% CO2, for 24 h.

in vitro [2] = conditions: human; remark: listed apart in the source
Description: as §1

[3] = read-out: Biochemical Assay IC50 GroEL/ES-dMDH refolding

Row | SMILES | IC50 (E. coli GroEL/ES) [µM] | log(IC50) GroEL/ES-dMDH Refolding (E. coli GroEL/ES) | log(IC50) Native Rho Reporter (native Rho (rhodanese)) | IC50 (native Rho (rhodanese)) [µM] | CC50 at 48 h (in vitro [1]) [µM] | CC50 at 48 h (in vitro [2]) [µM] | selectivity for E. coli GroEL/ES over human HSP60/10 (in words) (E. coli GroEL/ES) | inhibition in the GroEL/ES-mediated refolding assays (in words) (E. coli GroEL/ES) | IC50 (E. coli GroEL/ES; [3]) [µM] | inhibition of native Rho enzymatic activity (in words) (native Rho (rhodanese))
1 | COc1c(Br)cccc1C(=O)Nc1ccccc1 [Compound 42, 3-Bromo-2-methoxy-N-phenylbenzamide] | > 100 | >2 | >2 | > 100 | > 100 | > 100 | – | – | – | –
2 | O=C(Nc1cccc(Cl)c1)c1cc(Br)ccc1O [Compound 11, 5-Bromo-N-(3-chlorophenyl)-2-hydroxybenzamide] | > 100 | >2 | >2 | > 100 | – | – | – | – | – | –
3 | O=C(Nc1ccc(Sc2nc3ccccc3s2)cc1)c1cc(Br)ccc1O [Compound 7, N-(4-(Benzo[d]thiazol-2-ylthio)phenyl)-5-bromo-2-hydroxybenzamide] | – | 1.58 ± 0.34 | – | > 100 | – | – | selectively inhibit E. coli GroEUES over human HSP60/10 | moderate to potent inhibitors | 38 | inactive against the reporter enzymes
4 | O=C(Nc1ccc(Sc2nc3ccccc3s2)c(Cl)c1)c1ccccc1 [Compound 19, N-(4-(Benzo[d]thiazol-2-ylthio)-3-chlorophenyl)benzamide] | > 100 | – | – | > 100 | – | – | – | – | – | –
5 | O=C(Nc1cccc(Cl)c1)c1ccccc1O [Compound 12, N-(3-Chlorophenyl)-2-hydroxybenzamide] | > 100 | >2 | >2 | > 100 | – | – | – | – | – | –
6 | O=C(Nc1ccc(Sc2nc3ccccc3s2)c(Cl)c1)c1ccccc1O [Compound 4, N-(4-(Benzo[d]thiazol-2-ylthio)-3-chlorophenyl)-2-hydroxybenzamide] | – | 1.62 ± 0.32 | – | > 100 | – | – | selectively inhibit E. coli GroEUES over human HSP60/10 | – | 42 | –
7 | O=C(Nc1ccc(Sc2nc3ccccc3s2)cc1)c1cccc(Br)c1 [Compound 21, N-(4-(Benzo[d]thiazol-2-ylthio)phenyl)-3-bromobenzamide] | > 100 | – | – | > 100 | – | – | – | – | – | –
8 | O=C(Nc1cccc(Cl)c1)c1cc(Br)cc(Br)c1 [Compound 23, 3,5-Dibromo-N-(3-chlorophenyl)benzamide] | > 100 | >2 | >2 | > 100 | – | – | – | – | – | –
9 | CO[C@H]1/C=C/O[C@@]2(C)Oc3c(C)c(O)c4c(O)c(c(/C=N/N5CCN(C)CC5)c(O)c4c3C2=O)NC(=O)/C(C)=C\C=C\[C@H](C)[C@H](O)[C@@H](C)[C@@H](O)[C@@H](C)[C@H](OC(C)=O)[C@@H]1C [Rifampicin, rifampicin, reference compound] | – | – | – | – | 72.4 | > 100 | – | – | – | –
10 | O=C(Nc1ccc(Sc2nc3ccccc3s2)c(Cl)c1)c1cc(Br)ccc1O [Compound 3, N-(4-(Benzo[d]thiazol-2-ylthio)-3-chlorophenyl)-5-bromo-2-hydroxybenzamide] | – | 1.57 ± 0.35 | – | > 100 | – | – | selectively inhibit E. coli GroEUES over human HSP60/10 | moderate to potent inhibitors | 37 | inactive against the reporter enzymes
11 | O=C(Nc1ccccc1)c1cccc(Br)c1O [Compound 14, 3-Bromo-2-hydroxy-N-phenylbenzamide] | > 100 | >2 | >2 | > 100 | – | – | – | – | – | –
12 | O=C(Nc1ccc(Sc2nc3ccccc3s2)c(Cl)c1)c1cccc(Br)c1O [Compound 2, N-(4-(Benzo[d]thiazol-2-ylthio)-3-chlorophenyl)-3-bromo-2-hydroxybenzamide] | – | 0.98 ± 0.23 | – | – | – | – | – | moderate to potent inhibitors | 9.5 | inactive against the reporter enzymes
13 | O=C(Nc1ccc(Sc2nc3ccccc3s2)cc1)c1cc(Br)cc(Br)c1O [Compound 5, N-(4-(Benzo[d]thiazol-2-ylthio)phenyl)-3,5-dibromo-2-hydroxybenzamide] | – | 0.43 ± 0.19 | – | – | – | – | – | – | 2.7 | –
14 | O=C(Nc1ccc(Sc2nc3ccccc3s2)c(Cl)c1)c1cc(Br)cc(Br)c1O [Compound 1, N-(4-(Benzo[d]thiazol-2-ylthio)-3-chlorophenyl)-3,5-dibromo-2-hydroxybenzamide] | – | 0.23 ± 0.28 | – | > 100 | – | – | – | – | 1.7 | –
15 | O=C(Nc1ccccc1)c1cc(Br)ccc1O [Compound 15, 5-Bromo-2-hydroxy-N-phenylbenzamide] | > 100 | >2 | >2 | > 100 | – | – | – | – | – | –
16 | COc1c(Br)cccc1C(=O)Nc1ccc(Sc2nc3ccccc3s2)cc1 [Compound 34, N-(4-(Benzo[d]thiazol-2-ylthio)phenyl)-3-bromo-2-methoxybenzamide] | – | – | – | – | > 100 | > 100 | – | – | – | –
17 | O=C(Nc1ccc(Sc2nc3ccccc3s2)cc1)c1ccccc1O [Compound 8, N-(4-(Benzo[d]thiazol-2-ylthio)phenyl)-2-hydroxybenzamide] | – | 1.60 ± 0.26 | – | > 100 | – | – | selectively inhibit E. coli GroEUES over human HSP60/10 | – | 40 | –
18 | O=C(Nc1ccc(Sc2nc3ccccc3s2)cc1)c1cccc(Br)c1O [Compound 6, N-(4-(Benzo[d]thiazol-2-ylthio)phenyl)-3-bromo-2-hydroxybenzamide] | – | 1.52 ± 0.21 | – | – | – | – | – | moderate to potent inhibitors | 33 | inactive against the reporter enzymes
19 | COc1c(Br)cccc1C(=O)Nc1ccc(Sc2nc3ccccc3s2)c(Cl)c1 [Compound 30, N-(4-(Benzo[d]thiazol-2-ylthio)-3-chlorophenyl)-3-bromo-2-methoxybenzamide] | > 100 | – | – | – | > 100 | > 100 | – | – | – | –
